Laboratory results reported in US9388162B2, “Substituted morphinans and the use thereof” (Purdue Pharma L.P., priority 2012, dated 2016).

Experiments:
μ-opioid receptors = μ-opioid receptors (Homo sapiens (Human), UniProt P35372); experiment: μ-opioid receptor [35S]GTPγS functional assay, HEK-293 cells; type: biochemical; settings: μ GTP; for EC50: read-out: Activity Response μ EC50 (nM) [mean ± SEM]; for Emax: relative to DAMGO, read-out: Activity Response μ Emax (%)
Experimental: [^35S]GTPγS functional assays were conducted using freshly thawed μ-receptor membranes prepared from a cell line expressing recombinant μ opioid receptor in a HEK-293, CHO or U-2 OS cell background or purchased from a commercial source (Perkin Elmer, Shelton, Conn.; or DiscovRx, Fremont, Calif.). Assay reactions were prepared by sequentially adding the following reagents to binding buffer (100 mM NaCl, 10 mM MgCl2, 20 mM HEPES, pH 7.4) on ice (final concentrations indicated): membrane protein (0.026 mg/mL), saponin ([…]), GDP ([…]) and [^35S]GTPγS (0.20 nM; Perkin Elmer, Shelton, Conn.). The prepared membrane solution (190 μl/well) was transferred to 96-shallow well polypropylene plates containing 10 μl of 20× concentrated stock solutions of the agonist [D-Ala^2, N-methyl-Phe^4 Gly-ol^5]-enkephalin (DAMGO) prepared in dimethyl sulfoxide (DMSO). Plates were incubated for 30 min at about 25° C. with shaking. Reactions were terminated by rapid filtration onto 96-well Unifilter GF/B filter plates (Perkin Elmer, Shelton, Conn.) using a 96-well tissue harvester (Perkin Elmer, Shelton, Conn.) followed by three filtration washes with 200 μl of ice-cold wash buffer (10 mM NaH2PO4, 10 mM Na2HPO4, pH 7.4). Filter plates were subsequently dried at 50° C. for 2-3 hours. BetaScint scintillation cocktail (Perkin Elmer, Shelton, Conn.) was added (50 μl/well) and plates were counted using a Packard Top-Count for 1 min/well. Data were analyzed using the sigmoidal dose-response curve fitting functions in GraphPad PRISM v. 3.0, or an in-house function for non-linear, sigmoidal dose-response curve-fitting.
μ GTP EC50 is the concentration of a compound providing 50% of the maximal response for the compound at a μ-opioid receptor.
μ GTP Emax (%) is the maximal effect elicited by a compound relative to the effect elicited by DAMGO, a standard μ agonist. Generally, the μ GTP Emax (%) value measures the efficacy of a compound to treat or prevent pain or other Conditions.
(§1) The following tables provide results on the efficacy of binding and activity response of exemplified Compounds of the Invention at the μ- and κ-opioid receptors. In TABLE 3, binding affinity of certain Compounds of the Invention to the μ- and κ-opioid receptors was determined as described above. In TABLE 4, activity response of certain Compounds of the Invention to the μ- and κ-opioid receptors was determined as described above for functional assays using HEK-293 cells. In TABLE 5, activity response of certain Compounds of the Invention to the μ- and κ-opioid receptors was determined as described above using U-2 OS cells.

[1] = biological target: recombinant human kappa opioid receptor (κ) (Homo sapiens (Human), UniProt P41145); experiment: κ-opioid receptor radioligand dose displacement binding assay ([3H]-U69,593); settings: mean ± SEM, read-out: Binding Affinity Opioid Receptor Ki (nM) [mean ± SEM] κ
Experimental: (§2) Membranes from HEK-293 cells, CHO or U-2 OS cells expressing the recombinant human kappa opioid receptor (κ) were prepared by lysing cells in ice cold hypotonic buffer (2.5 mM MgCl2, 50 mM HEPES, pH 7.4) (10 mL/10 cm dish) followed by homogenization with a tissue grinder/Teflon pestle. Membranes were collected by centrifugation at 30,000×g for 15 min at 4° C. and pellets were resuspended in hypotonic buffer to a final concentration of 1-3 mg/mL. Protein concentrations were determined using the BioRad protein assay reagent with bovine serum albumen as standard. Aliquots of κ receptor membranes were stored at −80° C.
Radioligand dose displacement assays used 0.4 nM [^3H]-U69,593 (GE Healthcare, Piscataway, N.J.; 40 Ci/mmole) with 15 μg membrane protein (recombinant κ opioid receptor expressed in HEK 293 cells; in-house prep) in a final volume of 200 μl binding buffer (5% DMSO, 50 mM Trizma base, pH 7.4). Non-specific binding was determined in the presence of 10 μM unlabeled naloxone or U69,593. All reactions were performed in 96-well polypropylene plates for 1 hour at a temperature of about 25° C. Binding reactions were terminated by rapid filtration onto 96-well Unifilter GF/C filter plates (Perkin Elmer, Shelton, Conn.) presoaked in 0.5% polyethylenimine (Sigma). Harvesting was performed using a 96-well tissue harvester (Perkin Elmer, Shelton, Conn.) followed by five filtration washes with 200 μl ice-cold binding buffer. Filter plates were subsequently dried at 50° C. for 1-2 hours. Fifty μl/well scintillation cocktail (Perkin Elmer, Shelton, Conn.) was added and plates were counted in a Packard Top-Count for 1 min/well.
as §1

κ opioid receptor = κ opioid receptor (Homo sapiens (Human), UniProt P41145); experiment: κ-opioid receptor [35S]GTPγS functional assay, HEK-293 cells; type: biochemical; settings: κ GTP; for EC50: read-out: Activity Response κ EC50 (nM) [mean ± SEM]; for Emax: relative to U69,593, read-out: Activity Response κ Emax (%)
Experimental: as §2
Functional [^35S]GTPγS binding assays were conducted as follows. κ opioid receptor membrane solution was prepared by sequentially adding final concentrations of 0.026 μg/μl κ membrane protein (in-house), 10 μg/mL saponin, 3 μM GDP and 0.20 nM [^35S]GTPγS to binding buffer (100 mM NaCl, 10 mM MgCl2, 20 mM HEPES, pH 7.4) on ice. The prepared membrane solution (190 μl/well) was transferred to 96-shallow well polypropylene plates containing 10 μl of 20× concentrated stock solutions of agonist prepared in DMSO. Plates were incubated for 30 min at a temperature of about 25° C. with shaking. Reactions were terminated by rapid filtration onto 96-well Unifilter GF/B filter plates (Perkin Elmer, Shelton, Conn.) using a 96-well tissue harvester (Packard) and followed by three filtration washes with 200 μl ice-cold binding buffer (10 mM NaH2PO4, 10 mM Na2HPO4, pH 7.4). Filter plates were subsequently dried at 50° C. for 2-3 hours. Fifty μl/well scintillation cocktail (Perkin Elmer, Shelton, Conn.) was added and plates were counted in a Packard Top-Count for 1 min/well.
κ GTP EC50 is the concentration of a compound providing 50% of the maximal response for the compound at a κ receptor.
κ GTP Emax (%) is the maximal effect elicited by a compound relative to the effect elicited by U69,593.
as §1, with “In” for “The following tables provide results on the efficacy of binding and activity response of exemplified Compounds of the Invention at the μ- and κ-opioid receptors. In”

O=C(O)CC1(CC(=O)O)C[C@@]2(O)[C@H]3Cc4ccc(O)cc4[C@@]2(CCN3CC2CC2)CC1=O [Compound 12, 2,2′-((4bR,8aS,9R)-11-(cyclopropylmethyl)-3,8a-dihydroxy-6-oxo-6,7,8,8a,9,10-hexahydro-5H-9,4b-(epiminoethano)phenanthrene-7,7-diyl)diacetic acid]
EC50 (μ-opioid receptors): > 200000 nM
Ki [1]: 3410 ± 538 nM

CCOC(=O)C[C@H]1C[C@@]2(O)[C@H]3Cc4ccc(OC)cc4[C@@]2(CCN3CC2CC2)CC1=O [Compound 1, ethyl 2-((4bR,7R,8aS,9R)-11-(cyclopropylmethyl)-8a-hydroxy-3-methoxy-6-oxo-6,7,8,8a,9,10-hexahydro-5H-9,4b-(epiminoethano)phenanthren-7-yl)acetate]
EC50 (κ opioid receptor): 5110 ± 1260 nM
Emax (κ opioid receptor): 72 ± 3.21%
EC50 (μ-opioid receptors): 3400 ± 584 nM
Emax (μ-opioid receptors): 59.3 ± 3.38%
Ki [1]: 408 ± 34.1 nM

COc1ccc2c(c1)[C@]13CCN(CC4CC4)[C@H](C2)[C@]1(O)C[C@H](CC(=O)N1CCC[C@H]1C(=O)O)C(=O)C3 [Compound 16, (S)-1-(2-((4bR,7R,8aS,9R)-11-(cyclopropylmethyl)-8a-hydroxy-3-methoxy-6-oxo-6,7,8,8a,9,10-hexahydro-5H-9,4b-(epiminoethano)phenanthren-7-yl)acetyl)pyrrolidine-2-carboxylic acid]
EC50 (μ-opioid receptors): 6770 ± 1370 nM
Emax (μ-opioid receptors): 28.7 ± 1.86%
Ki [1]: > 20000 nM

COc1ccc2c(c1)[C@]13CCN(CC4CC4)[C@H](C2)[C@]1(O)C[C@H](CC(=O)N[C@@H](C)C(=O)O)C(=O)C3 [Compound 13, (S)-2-(2-((4bR,7R,8aS,9R)-11-(cyclopropylmethyl)-8a-hydroxy-3-methoxy-6-oxo-6,7,8,8a,9,10-hexahydro-5H-9,4b-(epiminoethano)phenanthren-7-yl)acetamido)propanoic acid]
EC50 (μ-opioid receptors): 4600 ± 471 nM
Emax (μ-opioid receptors): 66 ± 2.65%
Ki [1]: > 20000 nM

COc1ccc2c(c1)[C@]13CCN(CC4CC4)[C@H](C2)[C@]1(O)C[C@H](CC(=O)O)C(=O)C3 [Compound 8, 2-((4bR,7R,8aS,9R)-11-(cyclopropylmethyl)-8a-hydroxy-3-methoxy-6-oxo-6,7,8,8a,9,10-hexahydro-5H-9,4b-(epiminoethano)phenanthren-7-yl)acetic acid]
EC50 (κ opioid receptor): 4440 ± 679 nM
Emax (κ opioid receptor): 66.7 ± 6.84%
EC50 (μ-opioid receptors): 703 ± 72 nM
Emax (μ-opioid receptors): 59.7 ± 8.69%
Ki [1]: 261 ± 97.3 nM

C[C@H](NC(=O)C[C@H]1C[C@@]2(O)[C@H]3Cc4ccc(O)cc4[C@@]2(CCN3CC2CC2)CC1=O)C(=O)O [Compound 15, (S)-2-(2-((4bR,7R,8aS,9R)-11-(cyclopropylmethyl)-3,8a-dihydroxy-6-oxo-6,7,8,8a,9,10-hexahydro-5H-9,4b-(epiminoethano)phenanthren-7-yl)acetamido)propanoic acid]
EC50 (κ opioid receptor): 221 ± 59.4 nM
Emax (κ opioid receptor): 36 ± 2%
EC50 (μ-opioid receptors): 43.8 ± 14.7 nM
Emax (μ-opioid receptors): 36.2 ± 3.75%
Ki [1]: 191 ± 45.8 nM

COc1ccc2c(c1)[C@]13CCN(CC4CC4)[C@H](C2)[C@]1(O)C[C@H](CC(=O)N[C@@H](CC(C)C)C(=O)O)C(=O)C3 [Compound 18, (S)-2-(2-((4bR,7R,8aS,9R)-11-(cyclopropylmethyl)-8a-hydroxy-3-methoxy-6-oxo-6,7,8,8a,9,10-hexahydro-5H-9,4b-(epiminoethano)phenanthren-7-yl)acetamido)-4-methylpentanoic acid]
EC50 (μ-opioid receptors): 2750 ± 221 nM
Emax (μ-opioid receptors): 50 ± 1.53%
Ki [1]: 15900 nM

COc1ccc2c(c1)[C@]13CCN(CC4CC4)[C@H](C2)[C@]1(O)CC(CC(=O)O)(CC(=O)O)C(=O)C3 [Compound 10, 2,2′-((4bR,8aS,9R)-11-(cyclopropylmethyl)-8a-hydroxy-3-methoxy-6-oxo-6,7,8,8a,9,10-hexahydro-5H-9,4b-(epiminoethano)phenanthrene-7,7-diyl)diacetic acid]
EC50 (μ-opioid receptors): 14700 ± 1530 nM
Emax (μ-opioid receptors): 16 ± 2.65%
Ki [1]: > 20000 nM

O=C1C[C@]23CCN(CC4CC4)[C@H](Cc4ccc(O)cc42)[C@]3(O)C[C@@H]1CC(=O)N1CCC[C@H]1C(=O)O [Compound 17, (S)-1-(2-((4bR,7R,8aS,9R)-11-(cyclopropylmethyl)-3,8a-dihydroxy-6-oxo-6,7,8,8a,9,10-hexahydro-5H-9,4b-(epiminoethano)phenanthren-7-yl)acetyl)pyrrolidine-2-carboxylic acid]
EC50 (κ opioid receptor): > 200000 nM
EC50 (μ-opioid receptors): > 200000 nM
Emax (μ-opioid receptors): 0%
Ki [1]: 128 ± 18.1 nM

CC(C)C[C@H](NC(=O)C[C@H]1C[C@@]2(O)[C@H]3Cc4ccc(O)cc4[C@@]2(CCN3CC2CC2)CC1=O)C(=O)O [Compound 19, (S)-2-(2-((4bR,7R,8aS,9R)-11-(cyclopropylmethyl)-3,8a-dihydroxy-6-oxo-6,7,8,8a,9,10-hexahydro-5H-9,4b-(epiminoethano)phenanthren-7-yl)acetamido)-4-methylpentanoic acid]
EC50 (κ opioid receptor): 201 ± 25.9 nM
Emax (κ opioid receptor): 41.3 ± 2.85%
EC50 (μ-opioid receptors): 49.7 ± 7.48 nM
Emax (μ-opioid receptors): 37.5 ± 3.93%
Ki [1]: 146 ± 29.7 nM
